Results published in article PMC4730192, “Ligand selectivity in tachykinin and natalisin neuropeptidergic systems of the honey bee parasitic mite Varroa destructor” (Scientific Reports, 2016).
No end group written: not given here.

Columns and labels:
[1] = biological target: T1, V. destructor NTL receptor (VdNTL-R) (Varroa destructor, UniProt A0A141CIT8); assay: Aequorin calcium-mobilization reporter assay, VdNTL-R transiently expressed in CHO-K1 cells with Ga16; type: cell-based; settings: for Agonistic activity, VdNTL-R 0.1μM: ligand 0.1 μM; for Agonistic activity, VdNTL-R 0.1μM / Agonistic activity, VdNTL-R 1μM: relative luminescence normalized by highest activity of endogenous ligand VdNTL1, 3 biological replications; for Agonistic activity, VdNTL-R 1μM: ligand 1 μM; for EC50: CHO-K1 cells, Ga16 + aequorin luminescence, 10-fold serial dilutions, logistic fitting of dose-response curves
T1 sequence (A0A141CIT8 1-461): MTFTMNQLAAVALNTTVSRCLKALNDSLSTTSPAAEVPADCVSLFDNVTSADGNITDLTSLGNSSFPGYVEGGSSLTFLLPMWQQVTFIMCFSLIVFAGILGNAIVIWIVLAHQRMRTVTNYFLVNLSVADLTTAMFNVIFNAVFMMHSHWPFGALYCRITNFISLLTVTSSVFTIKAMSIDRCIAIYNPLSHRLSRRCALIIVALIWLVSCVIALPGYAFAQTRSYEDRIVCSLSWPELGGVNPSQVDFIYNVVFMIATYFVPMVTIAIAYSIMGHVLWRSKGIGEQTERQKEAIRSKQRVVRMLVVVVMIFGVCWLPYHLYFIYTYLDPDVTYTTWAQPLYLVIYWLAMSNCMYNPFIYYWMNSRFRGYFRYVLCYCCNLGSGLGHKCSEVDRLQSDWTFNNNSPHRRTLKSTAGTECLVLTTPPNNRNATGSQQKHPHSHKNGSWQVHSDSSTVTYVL
Excerpt: (§1) In this system, ligand-mediated G-protein-coupled receptor (GPCR) activation initiates calcium mobilization that is indicated by the increased luminescence of aequorin.
(§2) The PCR amplicons of the full open reading frames (ORFs) of the three receptors were initially cloned into the pGEMT easy vector (Promega) and transferred to the expression vector pcDNA3.1(+) (Invitrogen) using the common restriction enzymes in the multi-cloning site (EcoRI for AmTRPR, NotI for both VdNTLR and VdTRPR). The sequences of the inserts were confirmed by Sanger sequencing prior to heterologous expression. High-quality plasmid DNA prepared using the plasmid MIDIprep kit (Qiagen) was used for transient transfection. The methods for transient expression of aequorin and G-alpha16 in Chinese hamster ovary (CHO-K1) cells and the procedures for the assays were previously described. Thirty hours after the transfection, the cells were collected and preincubated with the coelenterazine (Invitrogen) for the functional assay as previously described. Serial dilutions (10-fold, ranging from 0.001 to 1000 nM) of the 10 endogenous ligands were used for treatment of the cells. These ten natural ligands included two […] and three […] predicted from the respective putative precursors and also included five AmTRP peptides. The elevated luminescence caused by intracellular calcium mobilization was measured for a continuous 20 seconds at every 100-ms interval. Dose response curves and EC50s of each ligand for each receptor were obtained by logistic fitting in Origin 8.6 (OriginLab).
(§3) The test ligands were mainly the NTL peptides of T. castaneum, D. melanogaster, B. mori, and Anopheles gambiae and two TRPs, TcTRP4 and DmTRP6. Two doses of each ligand were tested for each receptor: 1 and 0.1 μM for VdNTL-R and VdTRP-R and 1 and 0.01 μM for AmTRP-R.

[2] = biological target: T2, V. destructor TRP receptor (VdTRP-R) (Varroa destructor, UniProt A0A141CIT9); assay: Aequorin calcium-mobilization reporter assay, VdTRP-R transiently expressed in CHO-K1 cells with Ga16; type: cell-based; settings: for Receptor specificity among VdNTL-R, VdTRP-R and AmTRP-R (in words): expanded ligand test at two concentrations on the three receptors; for Agonistic activity, VdTRP-R 0.1μM: ligand 0.1 μM; for Agonistic activity, VdTRP-R 0.1μM / Agonistic activity, VdTRP-R 1μM: relative luminescence normalized by highest activity of endogenous ligand VdTRP3, 3 biological replications; for Agonistic activity, VdTRP-R 1μM: ligand 1 μM; for EC50: CHO-K1 cells, Ga16 + aequorin luminescence, 10-fold serial dilutions, logistic fitting of dose-response curves
T2 sequence (A0A141CIT9 1-437): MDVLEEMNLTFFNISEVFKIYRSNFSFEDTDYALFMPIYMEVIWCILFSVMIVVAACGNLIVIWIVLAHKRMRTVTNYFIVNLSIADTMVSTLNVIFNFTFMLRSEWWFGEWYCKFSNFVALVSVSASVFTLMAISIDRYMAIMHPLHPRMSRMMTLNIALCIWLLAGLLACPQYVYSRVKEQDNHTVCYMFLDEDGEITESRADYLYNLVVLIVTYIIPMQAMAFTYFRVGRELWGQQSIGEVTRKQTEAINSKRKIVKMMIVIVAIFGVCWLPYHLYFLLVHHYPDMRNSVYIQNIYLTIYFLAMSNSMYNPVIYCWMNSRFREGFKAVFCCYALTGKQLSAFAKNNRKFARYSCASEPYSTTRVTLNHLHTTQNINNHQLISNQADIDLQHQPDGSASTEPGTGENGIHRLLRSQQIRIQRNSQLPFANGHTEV
Excerpt: as §1, §2, §3

[3] = biological target: T3, A. mellifera TRP receptor (AmTRP-R) (Apis mellifera, UniProt A0ACM8RFV8); assay: Aequorin calcium-mobilization reporter assay, AmTRP-R transiently expressed in CHO-K1 cells with Ga16; type: cell-based; settings: for Agonistic activity, AmTRP-R 0.01μM: ligand 0.01 μM; for Agonistic activity, AmTRP-R 0.01μM / Agonistic activity, AmTRP-R 1μM: relative luminescence normalized by highest activity of endogenous ligand AmTRP1, 3 biological replications; for Agonistic activity, AmTRP-R 1μM: ligand 1 μM; for EC50: CHO-K1 cells, Ga16 + aequorin luminescence, 10-fold serial dilutions, logistic fitting of dose-response curves; for Agonistic activity on AmTRP-R (in words): dose-response or expanded ligand test, 1 and 0.01 μM
T3 sequence (A0ACM8RFV8 1-421): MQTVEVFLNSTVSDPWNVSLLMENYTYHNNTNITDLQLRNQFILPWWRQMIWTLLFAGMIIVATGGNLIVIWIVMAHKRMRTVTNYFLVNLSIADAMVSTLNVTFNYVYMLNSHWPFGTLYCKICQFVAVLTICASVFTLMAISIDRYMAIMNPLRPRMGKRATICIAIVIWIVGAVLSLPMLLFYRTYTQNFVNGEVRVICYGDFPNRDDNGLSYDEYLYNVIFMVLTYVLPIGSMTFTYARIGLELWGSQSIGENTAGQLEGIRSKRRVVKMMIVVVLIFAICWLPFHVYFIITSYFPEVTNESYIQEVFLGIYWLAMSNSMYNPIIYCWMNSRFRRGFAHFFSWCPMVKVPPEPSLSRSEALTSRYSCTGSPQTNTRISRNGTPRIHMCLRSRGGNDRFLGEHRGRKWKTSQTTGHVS
Excerpt: as §1, §2, §3

[4] = tested on: cockroach TRP myotropic bioassay; settings: cited from earlier work
[5] = tested on: pea aphid Acyrthosiphon pisum; settings: by feeding; cited from earlier work
[6] = expanded ligand test, 1 and 0.1 μM

Substance	Agonistic activity, VdNTL-R 0.1μM [1]	Agonistic activity, VdNTL-R 1μM [1]	Agonistic activity, VdTRP-R 0.1μM [2]	Agonistic activity, VdTRP-R 1μM [2]	Agonistic activity, AmTRP-R 0.01μM [3]	Agonistic activity, AmTRP-R 1μM [3]	EC50 [2]	EC50 [3]	further results
TEENPFWANR-NH2 [BmNTL5, NTL peptide of B. mori]	0.3 RLU	0.4 RLU	7.3 RLU	61.2 RLU	6 RLU	-0.2 RLU	–	–	Receptor specificity among VdNTL-R, VdTRP-R and AmTRP-R (in words) [2]: specifically activated only VdTRP-R
AAPFHAMR-NH2 [VdTRP2]	–	–	–	–	–	–	71 nM	95 nM	–
SIGGPAPGFVGAR-NH2 [VdNTL1]	96.2 RLU	100 RLU	1.3 RLU	18.6 RLU	60.2 RLU	98.4 RLU	–	4.5 nM	EC50 [1]: 26 nM; Difference in activity on AmTRP-R between VdNTL1 and VdNTL2 ([3]; VdNTL1 compared with VdNTL2): approximately 6 ×
pQA[Aib]SGFL[Aib]VRamide [compound 1888]	-0.4 RLU	1.9 RLU	0.3 RLU	1 RLU	-0.4 RLU	62.9 RLU	–	–	Agonistic activity on VdNTL-R (in words) [1, 6]: failing to show agonistic activity; Agonistic activity on VdTRP-R (in words) [2, 6]: failing to show agonistic activity; Agonistic activity on AmTRP-R (in words) [3]: some activity; Activity in a cockroach TRP myotropic bioassay [4]: highly potent activity; Oral aphicidal activity [5]: potent oral aphicidal activity
LQLRDLYNADDPFVPNRa [DmNTL5, NTL peptide of D. melanogaster]	0.2 RLU	0.1 RLU	0.7 RLU	3.1 RLU	6.5 RLU	-1.2 RLU	–	–	–
ASGQEEFGPFWANRa [TcNTL1, NTL peptide of T. castaneum]	1 RLU	1.5 RLU	2.2 RLU	60.7 RLU	4.6 RLU	-0.2 RLU	–	–	Receptor specificity among VdNTL-R, VdTRP-R and AmTRP-R (in words) [2]: specifically activated only VdTRP-R
AFHAMR-NH2 [VdTRP1]	–	–	–	–	–	–	55 nM	95 nM	–
GSFFGMR-NH2 [VdTRP3, GSFFGMRa]	–	24.8 RLU	107.6 RLU	100 RLU	58 RLU	96.3 RLU	4.3 nM	13 nM	–
APMGFQGMR-NH2 [AmTRP2,3]	–	–	–	–	–	–	250 nM	–	–
ALMGFQGVR-NH2 [AmTRP1]	–	37.1 RLU	2.5 RLU	34.9 RLU	69 RLU	100 RLU	–	0.3 nM	–
GGVPGFVGAR-NH2 [VdNTL2]	–	–	–	–	–	–	–	0.7 nM	EC50 [1]: 37 nM; Agonistic activity on AmTRP-R (in words) [3]: equally potent as the AmTRPs
HRNLFQVDDPFFATRa [DmNTL4, NTL peptide of D. melanogaster]	0.8 RLU	30.4 RLU	10.3 RLU	70.9 RLU	9.5 RLU	79.7 RLU	–	–	–
NPRWEFRGKFVGVR-NH2 [AmTRP7]	–	–	–	–	–	–	93 nM	0.8 nM	Lower sensitivity of VdTRP-R relative to VdTRP3 ([2]; fold lower sensitivity versus VdTRP3): > 10 ×
DLRQENDPFWGNR-NH2 [BmNTL3, NTL peptide of B. mori]	0.4 RLU	0.1 RLU	30.7 RLU	83.4 RLU	4.7 RLU	-0.8 RLU	–	–	Receptor specificity among VdNTL-R, VdTRP-R and AmTRP-R (in words) [2]: specifically activated only VdTRP-R
